Assay results reported in patent US8895605B2, “Pyrrolidine-substituted flavones as radio-sensitizers for use in the treatment of cancer” (Piramal Enterprises Limited, priority 2009, dated 2014).

What was measured:
[1] = tested on: Head and Neck carcinoma (FaDu) xenograft; experiment: In-vivo xenograft study, growth inhibition; details: FaDu xenograft in SCID mice
Excerpt: The assay can be carried out according to the method described in Clinical Cancer Research, 2003, 9, 6052-6061; the disclosure of which is incorporated by reference for the teaching of the assay. The in-vivo studies can be carried out by using Xenograft models in Severe combined immune deficiency (SCID) mice strain-CBySmn.CB17-Prkdc^scid/J, by the method described below. The statistically significant number of mice per group (n=6) is chosen in order to be able to statistically evaluate the study data. Six to eight weeks old SCID mice were used. Head and neck cancer cells are grown in MEM medium containing 10% fetal calf serum in 5% CO2 incubator at 37° C. Cells are pelleted by centrifugation at 1000 rpm for 10 minutes. […] Body weight for all the groups is recorded for the entire period. Tumor size and other signs of toxicity (external) is recorded every day. […] Tumor growth in compound treated animals is calculated as T/C (Treated/Control)×100% and growth inhibition percent (GI %) was [100−T/C %] […] Treatment is continued for 18 days as mentioned in study design. • Tumor weight in milligram is calculated using the formula for a prolate ellipsoid: Tumor weight (mg)=Length (mm)×[Breadth (mm)^2]×0.5 • Treated to control ratio (T/C %) on a given day is calculated using the formula: [formula] […]

FaDu cell line = experiment: In-vitro clonogenic assay (Compound A alone and with radiation); assay type: cell-based, human; details: for Number of colonies 72 h after Compound A treatment / Number of colonies 96 h after Compound A treatment: 1500 cells/plate; for Number of colonies 72 h after Compound A treatment: control 138 colonies; for Number of colonies 96 h after Compound A treatment: control 185 colonies
Procedure: The assay has been carried out according to the method described in Radiotherapy and Oncology, 2004, 71, 213-221; the disclosure of which is incorporated by reference for the teaching of the assay. The Fa-Du cells from exponential phase cultures were harvested by trypsinization, counted and plated at a cell density of 1500 cells/well in six-well plate and four identical groups were made. First group served as control that was untreated. Different wells of the second and third group, 24 h after seeding were irradiated at room temperature at dose of 2, 4, 6, 8 and 10 Gy respectively. The third group was further treated, 24 h after irradiation (i.e. on the third day of the experiment) with IC50 concentration of Compound A. The fourth group was treated on the third day of the experiment with IC50 concentration of Compound A alone. After completion of 72 h and 96 h respectively, the medium was changed for all the wells and the plates incubated for a total period of 12-14 days from the first day of the experiment (i.e. the cell seeding day) to allow sufficient time for the cells to form colonies of at least 50 cells. The medium was aspirated and colonies were fixed with methanol and acetic acid mixture in the proportion of 2:1. The fixation procedure was repeated after rinsing with water. The plates were dried and colonies stained with 0.1% crystal violet for 5 min. The wells were finally rinsed with water and dried. […] FIG. 3 and FIG. 4 show the visual enhancement in the radiation response by 1 μM dose of Compound A, in FaDu cell line (Seeding density: 1500 cells/plate).

[2] = 1 μM Compound A (IC50) alone, no radiation
[3] = 2 Gy radiation, then 1 μM Compound A 24 h after radiation
[4] = 4 Gy radiation, then 1 μM Compound A 24 h after radiation
[5] = 6 Gy radiation, then 1 μM Compound A 24 h after radiation
[6] = 8 Gy radiation, then 1 μM Compound A 24 h after radiation
[7] = 10 Gy radiation, then 1 μM Compound A 24 h after radiation

CN1CC[C@@H](c2c(O)cc(O)c3c(=O)cc(-c4ccccc4Cl)oc23)[C@@H]1CO.Cl [Compound A, (+)-trans-2-(2-Chlorophenyl)-5,7-dihydroxy-8-(2-hydroxymethyl-1-methyl-pyrrolidin-3-yl)-chromen-4-one hydrochloride] was tested, and the “Average % growth inhibition (% GI) with respect to control group” value ([1]; Only Compound A, 35 mpk i.p. everyday for 18 days) was 42%, the “Average % growth inhibition (% GI) with respect to control group” value ([1]; Radiation (3 Gy twice weekly, total 15 Gy) + Compound A 35 mpk i.p. everyday for 18 days) was 75% and the “Number of colonies 72 h after Compound A treatment” value (“Number of colonies 72 h” below) (FaDu cell line; [2]) was 38. For the same molecule, the “Number of colonies 96 h after Compound A treatment” value (“Number of colonies 96 h” for short) (FaDu cell line; [2]) was 36, the “Radiation response in clonogenic assay” value (FaDu cell line; 1 μM Compound A for both 72 h and 96 h, at both 4 and 6 Gy, 1500 cells/well) was “enhanced the radiation response” and the “Number of colonies 72 h” value (FaDu cell line; [3]) was 45. The “Number of colonies 96 h” value (FaDu cell line; [3]) was 40, the “Number of colonies 72 h” value (FaDu cell line; [4]) was 18 and the “Number of colonies 96 h” value (FaDu cell line; [4]) was 17. For the same molecule, the “Number of colonies 72 h” value (FaDu cell line; [5]) was 7, the “Number of colonies 96 h” value (FaDu cell line; [5]) was 6 and the “Number of colonies 72 h” value (FaDu cell line; [6]) was 0. For the same molecule, the “Number of colonies 96 h” value (FaDu cell line; [6]) was 2, the “Number of colonies 72 h” value (FaDu cell line; [7]) was 0 and the “Number of colonies 96 h” value (FaDu cell line; [7]) was 0.
